Assay results from patent publication US12502372B2, “(9beta-H)-pimarane mother nucleus diterpenoid compound with anti-colon cancer activity and derivative thereof, and preparation method thereof” (NANJING UNIVERSITY OF CHINESE MEDICINE, priority 2023, dated 2025).

Assays:
[1] = test system: HT-29 colon cancer cells; assay: MTT proliferation inhibition (cell viability) on colon cancer cell line HT-29; assay type: cell-based; details: for IC50: Homo sapiens, HT-29 colon cancer cell line, 24 hours with drug, MTT method, OD 570 nm, read-out: IC50 ± SD, HT-29
Procedure: (§1) Colon cancer cell lines HT-29 and SW620 (cell bank of Chinese Academy of Sciences) were cultured in a DMEM culture solution containing 10% fetal bovine serum (Gibco Company of America) at 37° C. under 5% CO2. During subculturing, a dish of tumor cells was taken out first, the culture solution was removed, and 3 mL of PBS was added to wash the cells twice; 1 mL of trypsin was added for digestion, 1 mL of culture solution was added after 2 minutes to stop the digestion, and the mixture was centrifuged at 1000 r/min and room temperature for 5 minutes; and a supernatant was removed, 1 mL of DMEM culture medium containing 10% fetal bovine serum was added, and the mixture was resuspended to obtain a cell suspension.
(§2) Different volumes of DMEM culture media were added to dilute the compounds into different concentrations. Meanwhile, a DMEM culture medium containing 0.1% DMSO was used as a negative control.
(§3) Tumor cells were suspended in a culture medium, inoculated into a 96-well plate (100 μL/well) by a cell density of 6×10^3, and cultured at 37° C. under 5% CO2 for 24 hours. In a logarithmic growth period of the tumor cell lines, different concentrations of compounds were added to culture the cells at 37° C. under 5% CO2 for 24 hours.
(§4) After 24 hours of interaction between the drugs and the tumor cells, 20 μL of MTT solution (5 mg/mL) was added into each well to incubate the cells in a sterile incubator for 3 hours. A supernatant was removed completely, and 150 μL of DMSO was added into each well to react on a shaker for 30 minutes, so as to dissolve bluish violet formazan crystals. An OD value was determined at a wavelength of 570 nm with a microplate reader. IC50 (median inhibitory concentration) values of the compounds were calculated by GraphPad Prism 8 software, and 5-FU was used as a positive control.

[2] = test system: colon cancer cell line SW620; assay: MTT proliferation inhibition (cell viability) on colon cancer cell line SW620; assay type: cell-based; details: for IC50: Homo sapiens, SW-620, SW620 colon cancer cell line, 24 hours with drug, MTT method, OD 570 nm, read-out: IC50 ± SD, SW620
Procedure: as §1, §2, §3, §4

Row | IC50 [1] [µM] | IC50 [2] [µM] | Structure (SMILES) | inhibiting effect on HT-29 relative to positive drug 5-FU ([1]; HT-29, compared with 5-FU) | anti-proliferation effect on HT-29 (in words) ([1]; HT-29, stated stronger than positive drug 5-FU) | anti-proliferation effect on SW620 (in words) ([2]; SW620, stated stronger than positive drug 5-FU)
1 | 9.18 ± 1.61 | 14.2 ± 1.43 | O=c1[nH]cc(F)c(=O)[nH]1 [Compound 5-FU, 5-fluorouracil, reference compound] |  |  | 
2 | > 20 |  | C[C@@H](C(=O)O)[C@@H]1[C@H]2C[C@H]3c4occc4C(=O)C[C@H]3[C@]1(CCC(=O)O)CO2 [Compound 1, secoicacinlivitholide F] |  |  | 
3 | 3.12 ± 1.63 | 9.92 ± 1.68 | COC(=O)CC[C@]12CO[C@H](C[C@H]3c4occc4C(=O)C[C@H]31)[C@H]2[C@@H](C)C(=O)O [Compound 2, secoicacinlivitholide G] | about three times that of the positive drug 5-FU | remarkable anti-proliferation effects | remarkable anti-proliferation effects
